# Assay results taken from patent publication US9993449B2, “(S)-3-amino-4-(difluoromethylenyl)cyclopent-1-ene-1-carboxylic acid, and related compounds as GABA aminotransferase inactivators for the treatment of epilepsy, addiction and hepatocellular carcinoma” (NORTHWESTERN UNIVERSITY, priority 2015, dated 2018).
# “Also recorded” adds a separate entry of the source. Counter-ions that a name gives are not always drawn.
# Columns and labels:
# [1] = biological target: alanine aminotransferase (Ala-AT); test: Inhibition of alanine aminotransferase; type: biochemical; settings: reversible inhibition
# From the text: Inhibition of Alanine Aminotransferase by 1. The assay was identical to that with aspartate aminotransferase except L-alanine was used as the substrate and lactate dehydrogenase was the enzyme (FIG. 5).
# CYP1A = biological target: T1, CYP1A (Homo sapiens, UniProt P05177); test: CYP1A inhibition (HLM, phenacetin substrate); type: in vitro ADME; settings: 10 μM, 10 min at 37° C.
# T1 construct: tissue Eurofins Panlabs; host or cells: human liver microsomes
# T1 sequence (P05177 1-516): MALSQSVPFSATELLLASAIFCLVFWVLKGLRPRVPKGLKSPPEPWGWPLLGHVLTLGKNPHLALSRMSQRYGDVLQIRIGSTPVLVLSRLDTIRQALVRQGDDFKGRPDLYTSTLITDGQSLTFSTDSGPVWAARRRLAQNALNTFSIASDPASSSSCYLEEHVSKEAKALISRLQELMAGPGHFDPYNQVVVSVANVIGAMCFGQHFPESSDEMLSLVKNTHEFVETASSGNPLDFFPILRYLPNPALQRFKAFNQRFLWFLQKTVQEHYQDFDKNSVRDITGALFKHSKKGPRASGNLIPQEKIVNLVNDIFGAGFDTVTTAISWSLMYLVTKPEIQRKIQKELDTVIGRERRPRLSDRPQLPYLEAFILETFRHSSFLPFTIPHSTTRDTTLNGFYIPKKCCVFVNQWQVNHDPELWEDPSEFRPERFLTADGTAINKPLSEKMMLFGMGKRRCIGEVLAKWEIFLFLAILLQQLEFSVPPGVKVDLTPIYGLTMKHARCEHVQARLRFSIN
# Procedure: (§1) Inhibition of Microsomal Cytochromes P450. The experiments were performed by Eurofins Panlabs (Redmond, Wash. 98052, USA). CYP1A inhibition (HLM, phenacetin substrate), CYP2B6 inhibition (HLM, bupropion substrate), CYP2C8 inhibition (HLM, paclitaxel substrate), CYP2C9 inhibition (HLM, diclofenac substrate), CYP2C19 inhibition (HLM, omeprazole substrate), CYP2D6 inhibition (HLM, dextromethorphan substrate), and CYP3A inhibition (HLM, midazolam and testosterone substrates) were tested. The test concentration was 10 μM. The incubation time was 10 min at 37° C. The detection method was by HPLC-MS/MS. The experiments were duplicated, and the % inhibition of the control values was averaged (FIG. 8).
# striatal dopamine levels = test: MicroPET imaging with 11C-raclopride: cocaine- or nicotine-induced dopamine elevation in freely moving rats; type: in vivo, rat
# Procedure: Drug addiction results from the release of dopamine in the NAcc when an addictive substance is ingested. The effect of 1 on the release of dopamine in freely moving rats was determined using in vivo micropositron emission tomography (microPET) imaging (FIG. 10). (Dewey, S. L.; Morgan, A. E.; Ashby, C. R.; Horan, B.; Kushner, S. A.; Logan, J.; Volkow, N. D.; Fowler, J. S.; Gardner, E. L.; Brodie, J. D. Synapse 1998, 30 (2), 119-129). […] MicroPET was used to measure the dissociation of the tracer [^11C]-raclopride from dopamine receptors caused by either cocaine- or nicotine-induced increases in synaptic dopamine levels (the same images were obtained with cocaine and nicotine). When animals received cocaine (n=8) or nicotine (n=6), striatal dopamine levels were rapidly elevated. (Dewey, S. L.; Chaurasia, C. S.; Chen, C. E.; Volkow, N. D.; Clarkson, F. A.; Porter, S. P.; Straughter-Moore, R. M.; Alexoff, D. L.; Tedeschi, D.; Russo, N. B.; Fowler, J. S.; Brodie, J. D. Synapse 1997, 25 (4), 393-398). […] Therefore, 1 blocks both cocaine- and nicotine-induced elevations in dopamine.
# MicroPET imaging. Adult male rats (Sprague-Dawley, 200-250 grams, n =16) were obtained from Taconic Farms. Animals were maintained on a 12/12 light-dark cycle. Scanning was performed using a Siemen's Inveon. All emission scans were corrected for attenuation. Animals received baseline microPET scans using either ^11C-raclopride or ^18FDG as described previously. (Patel, V. D.; Lee, D. E.; Alexoff, D. L.; Dewey, S. L.; Schiffer, W. K. Neuroimage 2008, 41 (3), 1051-1066.) Uptake of both radiotracers occurred while animals were awake and freely moving. Immediately prior to microPET scanning, all animals were anesthetized and maintained under isoflurane.
# CYP3A = CYP3A inhibition (HLM, midazolam and testosterone substrates); type: in vitro ADME, human; settings: 10 μM, 10 min at 37° C.
# Procedure: as §1
# [2] = tested on: glucose metabolism in the hippocampus; test: MicroPET imaging with 18FDG: cocaine-induced increases in glucose metabolism in freely moving rats; type: in vivo, rat; settings: 18FDG microPET, statistical parametric map, p<0.00001, Hydrochloride
# From the text: In addition to labeled raclopride studies, [^18F]-2′-fluoro-2′-deoxy-D-glucose (^18FDG) and microPET were also used to examine the regional effects of 1 on cocaine-induced increases in glucose metabolism. ^18FDG is an analogue of glucose that gets taken up into neurons (or any cells in the human body) just like glucose. However, after ^18FDG is phosphorylated, the corresponding 6′-phosphate cannot be further metabolized in the glycolytic pathway and remains in cells. Consequently, human PET studies have used ^18 FDG for decades to map the brain. […] When a human or a rat receives a psychostimulant like cocaine, dopamine floods the synapse, causing post-synaptic neurons to fire frantically. Because this neuronal firing requires energy in the form of glucose, the result is that brain glucose metabolism increases in specific brain regions. The effect of 1 on cocaine-induced increases in glucose metabolism in freely moving rats was determined using statistical parametric mapping, in which all of the images from the cocaine-only animals were added together and then compared to the images obtained from the same animals that received 1 and cocaine. A statistical threshold (p<0.00001) was set, and a statistical parametric map, an image showing all the pixels that were statistically different between the two conditions, was generated and then overlaid on an MRI of the rat brain (FIG. 11). […]
smiles,measurement,setting,value
"N[C@H]1C=C(C(=O)O)CC1=C(F)F [Compound 1, (S)-3-Amino-4-(difluoromethylenyl)cyclopent-1-ene-1-carboxylic acid Hydrochloride]",IC50,[1],> 4 mM
same,inhibition or induction of CYP 1A,CYP1A,does not inhibit or induce
same,"suppressing the release of dopamine in the NAcc following a cocaine or nicotine challenge, compared with CPP-115",striatal dopamine levels,superior to CPP-115
same,cocaine-induced elevations in dopamine,"striatal dopamine levels; 1 given prior to cocaine, 11C-raclopride microPET",blocks
same,nicotine-induced elevations in dopamine,"striatal dopamine levels; 1 given prior to nicotine, 11C-raclopride microPET",blocks
same,inhibition or induction of CYP 3A,CYP3A,does not inhibit or induce
same,cocaine-induced activation (metabolic demand) in the hippocampus,[2],attenuated; also recorded: all gone
